# Results taken from patent publication US20260021046A1, “LIPID NANOPARTICLE AND PHARMACEUTICAL COMPOSITION” (NATIONAL UNIVERSITY CORPORATION HOKKAIDO UNIVERSITY, priority 2022, published 2026).
# Legend:
# [1] = tested on: activated hepatic stellate cell line LX-2; assay: EGFP mRNA delivery and transfection screening by FACS; format: cell-based; conditions: LX-2 cells; EGFP mRNA lipid nanoparticles, 250 ng mRNA per well
# Protocol: Fourteen types of lipid nanoparticles prepared were screened with activated hepatic stellate cell line LX-2 (Merck (Germany) and hepatocyte line FL83B (ATCC, USA).
# Twenty-four hours prior to the experiment, cells were seeded in 6-well plates at 1×10^5 cells/well and incubated at 37° C. The medium was aspirated and the cells were washed with (−) PBS and then treated with lipid nanoparticles encapsulating EGFP mRNA (TriLink BioTechnologies, USA) in 1.5 ml of growth medium for 24 hours. The amount of mRNA per well was 250 ng. Cells were then washed with (−) PBS and incubated in fresh medium for an additional 21 hours. The median fluorescence intensity of EGFP and the percentage of transfected cells were evaluated by fluorescence activated cell sorting (FACS) using a flow cytometer (Cytoflex, Beckman Coulter, USA).
# [2] = Apparent pKa of lipid nanoparticles using TNS; conditions: lipid nanoparticles encapsulating mRNA prepared with the lipid, 37° C.
# Protocol: The apparent acid dissociation constant pKa of the lipid membrane of a lipid nanoparticle is measured in a buffer at 37° C. using 6-p-toluidino-2-naphthalenesulfonic acid (TNS) (see Examples).
# The apparent pKa of the lipid nanoparticles was also measured using 6-p-toluidino-2-naphthalenesulfonic acid (TNS) (see NPL 14). Specifically, in each well of a 96-well plate, lipid (0.5 mM) of the lipid nanoparticles and TNS (0.6 mM) were added to 200 μL of a buffer solution and mixed. The buffer solution was 20 mM citrate buffer (pH3.50 to 5.50), 20 mM sodium phosphate buffer (pH6.00 to 8.00), or 20 mM Tris-HCl buffer (pH8.00 to 9.00), and each buffer solution contained 150 mM NaCl. At this time, the final concentration of lipid was adjusted to 30 µM and the final concentration of TNS was adjusted to 6 μM. Fluorescence (excitation wavelength 321 nm, fluorescence wavelength 447 nm) was then measured at 37° C. using a plate reader (Enspire 2300 multilabel reader, Perkin Elmer). The pKa was defined as the pH value showing 50% of the maximum fluorescence intensity. • [NPL 14]
# [3] = Average particle size, PDI, zeta potential (dynamic light scattering) and RNA encapsulation efficiency (RiboGreen) of lipid nanoparticles; format: physicochemical; conditions: CL15H6 lipid nanoparticles with SMO-siRNA
# Protocol: The average particle size, particle size distribution, and zeta potential of the lipid nanoparticles were measured using a Zetasizer Nano ZS (Malvern Instruments Ltd, UK) by dynamic light scattering and the form of lipid nanoparticle was measured using a transmission electron-microscope as described in NPL 12. The efficiency of mRNA encapsulation was estimated by RiboGreen fluorometry as described in NPL 13. Although the respective values vary depending on the type of pH-sensitive cationic lipid, the composition of the lipids constituting the lipid nanoparticles, the preparation conditions of the lipid nanoparticles, and the like, the average particle size of the lipid nanoparticles was in the range of 80 to 350 nm, the PDI was in the range of 0.05 to 0.4, the zeta potential was in the range of −16 to +5 mV, and the efficiency of mRNA encapsulation was 75 to 95%. • [NPL 12] Mahmoud A. Younis, et al., “A Multifunctional Lipid-Based Nanodevice for the Highly Specific Codelivery of Sorafenib and Midkine siRNA to Hepatic Cancer Cells”, Molecular Pharmaceutics, Vol. 16, pp. 4031-4044 • [NPL 13] Mahmoud M. Abd Elwakil, et al., “Engineered &-decalactone lipomers bypass the liver to selectively in vivo deliver mRNA to the lungs without targeting ligands”, Materials Horizons, Vol. 8, pp. 2251-2259
# The average particle size, particle size distribution, and zeta potential of the lipid nanoparticles were measured in the same manner as in Example 1 to estimate the efficiency of SMO-siRNA encapsulation. The relationship between the flow rate ratio of the aqueous phase to the organic phase, the average particle size, particle size distribution, zeta potential, and SMO-siRNA encapsulation efficiency of the lipid nanoparticles prepared at the same flow rate ratio when CL15H6 was used as the pH-sensitive cationic lipid is shown in Table 3 below. In the subsequent experiments, lipid nanoparticles were prepared at a ratio of 4:1 (aqueous phase: organic phase), which provided the highest encapsulation efficiency, the smallest average particle size, and the smallest PDI.
# SMO mRNA = assay: In vivo SMO mRNA knockdown in liver tissue by qRT-PCR; set-up: species or system mice; conditions: 24 hours
# Protocol: TAA-induced liver fibrosis model mice were prepared in the same manner as in Example 1, and SMO-siRNA-encapsulated lipid nanoparticles were intravenously administered to the mice via the tail vein so that the amount of RNA per kg of body weight was 0.5 mg/kg. 24 hours after the administration, the mouse livers were collected. The ratio of the amount of SMO mRNA to the amount of GAPDH mRNA in the liver tissue was confirmed by qRT-PCR. The SMO gene is expressed only in hepatic stellate cells in the liver.
# Next, a lipid composition containing CL15H6 and SMO-siRNA were mixed in different ratios to prepare lipid nanoparticles with different nitrogen/phosphate (N/P) ratios. Specifically, lipid nanoparticles were prepared with N/P ratios of 0.5, 1, 2, 4, 8, 12, 16, and 20. The prepared lipid nanoparticles were intravenously administered to mice with liver fibrosis so that the amount of RNA per kg of body weight was 0.5 mg/kg, and the ratio of the amount of SMO mRNA to the amount of GAPDH mRNA in the liver tissue was confirmed 24 hours later.
# Next, the relationship between the dosage amount of SMO-siRNA and the ratio of the amount of SMO mRNA to the amount of GAPDH mRNA in the liver tissue was examined. For comparison, the relationship between the dosage amount of control siRNA (siCtrl) and the ratio of SMO mRNA to GAPDH mRNA in hepatic stellate cells was also examined.
# Lipid nanoparticles encapsulating a mixture of the above SMO-siRNA and TGFβ1-siRNA at a ratio of 1:1 were prepared by using CL15H6, the above SMO-siRNA (SEQ ID NOs: 1 and 2) targeting the mRNA of the SMO gene and the TGFβ1-siRNA (SEQ ID NOS: 3 and 4) targeting the mRNA of the TGFβ1 gene and having the sequence shown in Table 4 below. The prepared lipid nanoparticles were intravenously administered to mice with liver fibrosis so that each of the amounts of SMO-siRNA and of TGFβ1-siRNA per kg of body weight was 0.25 mg/kg, and 24 hours later, the ratios of the amounts of SMO mRNA and of TGFβ1 mRNA to the amount of GAPDH mRNA in the liver tissue was confirmed.
# [4] = aqueous phase:organic phase 2:1
# [5] = aqueous phase:organic phase 3:1
# [6] = aqueous phase:organic phase 4:1
# [7] = aqueous phase:organic phase 5:1
# [8] = aqueous phase:organic phase 9:1
compound,measurement,setting,value
"CCCCCCCCCCCCCCCC(=O)OCCCCCCC(O)(CCCCCCOC(=O)CCCCCCCCCCCCCCC)CCCCN(C)C [CL1D6, 7-(4-(dimethylamino)butyl)-7-hydroxytridecane-1,13-diyl dipalmitate]",mRNA delivery efficiency (median fluorescence intensity of EGFP),[1],high
"CCCCCCCC/C=C\CCCCCCCC(=O)OCCCCCCC(O)(CCCCCCOC(=O)CCCCCCC/C=C\CCCCCCCC)CCCCN(C)C [CL1H6, 7-(4-(dimethylamino)butyl)-7-hydroxytridecane-1,13-diyl dioleate]",mRNA delivery efficiency (median fluorescence intensity of EGFP),[1],high
CCCCCCCCC(CCCCCC)C(=O)OCCCCCCC(O)(CCCCCCOC(=O)C(CCCCCC)CCCCCCCC)CCCCN(CCC)CCC (stereo not shown) [CL4F6],Apparent pKa,[2],6.00
CCCCCCCC/C=C\CCCCCCCC(=O)OCCCCCCC(O)(CCCCCCOC(=O)CCCCCCC/C=C\CCCCCCCC)CCCCN(CCC)CCC [CL4H6],Apparent pKa,[2],6.25
"CCCCCCCCC(CCCCCC)C(=O)OCCCCCCC(O)(CCCCCCOC(=O)C(CCCCCC)CCCCCCCC)CCCCOC(=O)C1CCN(C)CC1 (stereo not shown) [CL15F6, 7-hydroxy-7-(4-((1-methylpiperidine-4-carbonyl)oxy)butyl)tridecane-1,13-diyl bis(2-hexyldecanoate)]",mRNA delivery efficiency (median fluorescence intensity of EGFP),[1],high
"CCCCCCCC/C=C\CCCCCCCC(=O)OCCCCCCC(O)(CCCCCCOC(=O)CCCCCCC/C=C\CCCCCCCC)CCCCOC(=O)C1CCN(C)CC1 [CL15H6, 7-hydroxy-7-(4-((1-methylpiperidine-4-carbonyl)oxy)butyl)tridecane-1,13-diyl dioleate]",Average particle size,[3]; [4],135.72 nm
same,Encapsulation efficiency,[3]; [4],66.12%
same,PDI,[3]; [4],0.280
same,Zeta potential,[3]; [4],−6.81 mV
same,Average particle size,[3]; [5],72.5 nm
same,Encapsulation efficiency,[3]; [5],92.33%
same,PDI,[3]; [5],0.192
same,Zeta potential,[3]; [5],−3.75 mV
same,Average particle size,[3]; [6],53.45 nm
same,Encapsulation efficiency,[3]; [6],94.06%
same,PDI,[3]; [6],0.093
same,Zeta potential,[3]; [6],−3.35 mV
same,Average particle size,[3]; [7],57.12 nm
same,Encapsulation efficiency,[3]; [7],89.19%
same,PDI,[3]; [7],0.169
same,Zeta potential,[3]; [7],−5.08 mV
same,Average particle size,[3]; [8],58.53 nm
same,Encapsulation efficiency,[3]; [8],75.55%
same,PDI,[3]; [8],0.217
same,Zeta potential,[3]; [8],−8.2 mV
same,mRNA delivery efficiency (median fluorescence intensity of EGFP),[1],high
same,amount of SMO mRNA (ratio to GAPDH mRNA) in liver tissue,"SMO mRNA; CL15H6 SMO-siRNA lipid nanoparticles, 0.5 mg/kg iv, N/P ratio 4 among 0.5 to 20",lowest
same,amount of SMO mRNA (ratio to GAPDH mRNA) in liver tissue,"SMO mRNA; SMO-siRNA lipid nanoparticles, 0.5 mg/kg RNA iv, versus HEPES buffer control",significantly reduced
